Source: patent US20260130933A1, “PHARMACEUTICAL COMPOSITION FOR PREVENTION OR TREATMENT OF NEPHROPATHY AND/OR DIABETES MELLITUS, COMPRISING ENAVOGLIFLOZIN” (DAEWOONG PHARMACEUTICAL CO., LTD., priority 2022, published 2026)

Experiment: Example 2: phase 3 trial, enavogliflozin 0.3 mg vs dapagliflozin 10 mg once a day for 24 weeks added to metformin in patients with type 2 diabetes (same efficacy, exploratory and safety endpoints)
Format: in vivo, human
Procedure: Subjects who met the inclusion/exclusion criteria were administered a placebo of the clinical trial drug under single-blind (subject blinding) conditions during a 2-week run-in period while continuing to receive metformin. […] The randomized subjects were administered two tablets of the clinical trial drug for each administration group once a day, and then visited the institution at weeks 6, 12, 18, and 24 during the 24-week administration period to conduct efficacy and safety evaluations.
• 1. Change in HbA1c at week 24 after administration of clinical trial drug compared to Visit 2 (randomization)
• 1. Change in HbA1c at each time point of weeks 6, 12, and 18 after administration of clinical trial drug compared to Visit 2 (randomization) • 2. Change in FPG at each time point of weeks 6, 12, 18, and 24 after administration of clinical trial drug compared to Visit 2 (randomization) • 3. Proportion of subjects achieving HbA1c<7% at each time point of weeks 6, 12, 18, and 24 after administration of clinical trial drug • 4. Proportion of subjects achieving HbA1c<6.5% at each time point of weeks 6, 12, 18, and 24 after administration of clinical trial drug • 5. Proportion of subjects achieving therapeutic response (HbA1c change (HbA1c at Visit 2-HbA1c at each evaluation time point)>0.5% or HbA1c<7% at each evaluation time point compared to Visit 2 (randomization)) at each time point of weeks 6, 12, 18 and 24 after administration of clinical trial drug
• 1. Change in fasting c-peptide at each time point of weeks 6, 12, 18, and 24 after administration of clinical trial drug compared to Visit 2 (randomization) • 2. Change in body weight at each time point of weeks 6, 12, 18, and 24 after administration of clinical trial drug compared to Visit 2 (randomization) • 3. Change in fasting lipid concentration (total cholesterol, LDL-C, HDL-C, and triglycerides) at each time point of weeks 6, 12, 18, and 24 after administration of clinical trial drug compared to Visit 2 (randomization) • 4. Changes in systolic or diastolic blood pressure at each time point of weeks 6, 12, 18, and 24 after administration of clinical trial drug compared to Visit 2 (randomization) • 5. Changes in β-cell function and insulin resistance measured by HOMA-β and HOMA-IR at each time point of weeks 6, 12, 18, and 24 after administration of clinical trial drug compared to Visit 2 (randomization) • 6. Changes in renal function-related indicators (UACR, UGCR) measured by UACR at each time point of weeks 6, 12, 18, and 24 after administration of clinical trial drug compared to Visit 2 (randomization) • 7. Changes in obesity-related indicators (adiponectin, leptin) at each time point of weeks 6, 12, 18, and 24 after administration of clinical trial drug compared to Visit 2 (randomization)

[1] = Baseline, modified per-protocol set 1, enavogliflozin 0.3 mg, dapagliflozin 10 mg
[2] = Baseline, per-protocol set, enavogliflozin 0.3 mg, dapagliflozin 10 mg

In the case of `CCOc1ccc(Cc2cc([C@@H]3O[C@H](CO)[C@@H](O)[C@H](O)[C@H]3O)ccc2Cl)cc1` [Dapagliflozin, reference compound], the “Incidence of serious adverse drug reactions” value (24 weeks) is reported as 7 case, the Adiponectin, Mean (SD) (Baseline, PPS) is reported as 6.6 µg/mL and the Adiponectin, Median (Baseline, PPS) is reported as 5.94 µg/mL. The “HOMA-IR, Mean (SD)” value (Baseline, PPS) was 3.85, the “HOMA-IR, Median” value (Baseline, PPS) was 3.05 and the “HOMA-β, Mean (SD)” value (Baseline, PPS) was 44.44. For the same compound, the “HOMA-β, Median” value (Baseline, PPS) was 38.75, the “Leptin, Mean (SD)” value (Baseline, PPS) was 11.76 ng/mL and the “Leptin, Median” value (Baseline, PPS) was 8.32 ng/mL. The “UACR, Mean (SD)” value (Baseline, PPS) was 57.42 g/kg, the “UACR, Median” value (Baseline, PPS) was 15.50 g/kg and the “UGCR, Mean (SD)” value (Baseline, PPS) was 1.83 mg/mg. The “UGCR, Median” value (Baseline, PPS) was 0.15 mg/mg, the “HDL-C, Mean (SD)” value (Baseline, mPPS1) was 46.90(9.17) mg/dL and the “HDL-C, Median” value (Baseline, mPPS1) was 46.00 mg/dL. The “LDL-C, Mean (SD)” value (Baseline, mPPS1) was 76.16(26.27) mg/dL, the “LDL-C, Median” value (Baseline, mPPS1) was 75.00 mg/dL and the “Triglycerides, Mean (SD)” value (Baseline, mPPS1) was 132.92(75.63) mg/dL. The “Triglycerides, Median” value (Baseline, mPPS1) was 115.00 mg/dL, the “Diastolic blood pressure, Mean (SD)” value (Baseline, mPPS2) was 75.92 mmHg and the “Diastolic blood pressure, Median” value (Baseline, mPPS2) was 75.00 mmHg. For the same compound, the “Systolic blood pressure, Mean (SD)” value (Baseline, mPPS2) was 127.44(14.12) mmHg, the “Systolic blood pressure, Median” value (Baseline, mPPS2) was 127.00 mmHg and the “fasting Total cholesterol, Mean (SD)” value [1] was 137.87(26.64) mg/dL. The “fasting Total cholesterol, Median” value [1] was 139.00 mg/dL, the “FPG, Mean (SD)” value [2] was 149.33 mg/dL and the “FPG, Median” value [2] was 142.00 mg/dL. The “HbA1c, Mean (SD)” value [2] was 7.68%, the “HbA1c, Median” value [2] was 7.49% and the “body weight, Mean (SD)” value [2] was 70.52(11.81) kg. The “body weight, Median” value [2] was 69.70 kg, the “fasting c-peptide, Mean (SD)” value [2] was 0.74(0.23) ng/mL and the “fasting c-peptide, Median” value [2] was 0.71 ng/mL. For the same compound, the Adiponectin change from baseline, ANCOVA LS mean (SE) (Week 6, PPS) was 0.8 µg/mL, the Adiponectin change from baseline, Mean (SD) (Week 6, PPS) was 0.77 µg/mL and the “Adiponectin change from baseline, Median” value (Week 6, PPS) was 0.51 ng/mL. The Adiponectin, Mean (SD) (Week 6, PPS) was 7.4 µg/mL, the Adiponectin, Median (Week 6, PPS) was 6.36 µg/mL and the “HOMA-IR change from baseline, ANCOVA LS mean (SE)” value (Week 6, PPS) was −1.31. The “HOMA-IR change from baseline, Mean (SD)” value (Week 6, PPS) was −1.46, the “HOMA-IR change from baseline, Median” value (Week 6, PPS) was −1.03 and the “HOMA-IR, Mean (SD)” value (Week 6, PPS) was 2.34. For the same compound, the “HOMA-IR, Median” value (Week 6, PPS) was 2.07, the “HOMA-β change from baseline, ANCOVA LS mean (SE)” value (Week 6, PPS) was −1.79 and the “HOMA-β change from baseline, Mean (SD)” value (Week 6, PPS) was −2.83. For the same compound, the “HOMA-β change from baseline, Median” value (Week 6, PPS) was 1.10, the “HOMA-β, Mean (SD)” value (Week 6, PPS) was 41.10 and the “HOMA-β, Median” value (Week 6, PPS) was 42.20. For the same compound, the “Leptin change from baseline, ANCOVA LS mean (SE)” value (Week 6, PPS) was -1.62 ng/mL, the “Leptin change from baseline, Mean (SD)” value (Week 6, PPS) was -1.61 ng/mL and the “Leptin change from baseline, Median” value (Week 6, PPS) was -1.46 ng/mL. The “Leptin, Mean (SD)” value (Week 6, PPS) was 9.85 ng/mL, the “Leptin, Median” value (Week 6, PPS) was 5.51 ng/mL and the “UACR change from baseline, ANCOVA LS mean (SE)” value (Week 6, PPS) was 8.13 g/kg. For the same compound, the “UACR change from baseline, Mean (SD)” value (Week 6, PPS) was 4.49 g/kg, the “UACR change from baseline, Median” value (Week 6, PPS) was 0.00 g/kg and the “UACR, Mean (SD)” value (Week 6, PPS) was 62.95 g/kg. The “UACR, Median” value (Week 6, PPS) was 13.90 g/kg, the “UGCR change from baseline, ANCOVA LS mean (SE)” value (Week 6, PPS) was 50.10 mg/mg and the “UGCR change from baseline, Mean (SD)” value (Week 6, PPS) was 47.54 mg/mg. For the same compound, the “UGCR change from baseline, Median” value (Week 6, PPS) was 42.30 mg/mg, the “UGCR, Mean (SD)” value (Week 6, PPS) was 48.64 mg/mg and the “UGCR, Median” value (Week 6, PPS) was 43.08 mg/mg. For the same compound, the “HDL-C change from baseline, ANCOVA LS mean (SE)” value (Week 6, mPPS1) was 1.60(0.61) mg/dL, the “HDL-C change from baseline, Mean (SD)” value (Week 6, mPPS1) was 1.94(5.62) mg/dL and the “HDL-C change from baseline, Median” value (Week 6, mPPS1) was 1.00 mg/dL. The “HDL-C, Mean (SD)” value (Week 6, mPPS1) was 48.83(10.55) mg/dL, the “HDL-C, Median” value (Week 6, mPPS1) was 48.50 mg/dL and the “LDL-C change from baseline, ANCOVA LS mean (SE)” value (Week 6, mPPS1) was 4.20(1.95) mg/dL. The “LDL-C change from baseline, Mean (SD)” value (Week 6, mPPS1) was 4.87(19.92) mg/dL, the “LDL-C change from baseline, Median” value (Week 6, mPPS1) was 3.00 mg/dL and the “LDL-C, Mean (SD)” value (Week 6, mPPS1) was 81.20(28.87) mg/dL. The “LDL-C, Median” value (Week 6, mPPS1) was 76.50 mg/dL, the “Triglycerides change from baseline, ANCOVA LS mean (SE)” value (Week 6, mPPS1) was −10.14(7.09) mg/dL and the “Triglycerides change from baseline, Mean (SD)” value (Week 6, mPPS1) was −11.86(54.93) mg/dL. For the same compound, the “Triglycerides change from baseline, Median” value (Week 6, mPPS1) was -2.00 mg/dL, the “Triglycerides, Mean (SD)” value (Week 6, mPPS1) was 120.41(53.12) mg/dL and the “Triglycerides, Median” value (Week 6, mPPS1) was 104.50 mg/dL. The “Diastolic blood pressure change from baseline, ANCOVA LS mean (SE)” value (Week 6, mPPS2) was −1.47 mmHg, the “Diastolic blood pressure change from baseline, Mean (SD)” value (Week 6, mPPS2) was −1.10 mmHg and the “Diastolic blood pressure change from baseline, Median” value (Week 6, mPPS2) was 0.00 mmHg. The “Diastolic blood pressure, Mean (SD)” value (Week 6, mPPS2) was 74.57 mmHg, the “Diastolic blood pressure, Median” value (Week 6, mPPS2) was 75.00 mmHg and the “Systolic blood pressure change from baseline, ANCOVA LS mean (SE)” value (Week 6, mPPS2) was −2.71(1.06) mmHg. The “Systolic blood pressure change from baseline, Mean (SD)” value (Week 6, mPPS2) was −1.98(11.14) mmHg, the “Systolic blood pressure change from baseline, Median” value (Week 6, mPPS2) was −1.50 mmHg and the “Systolic blood pressure, Mean (SD)” value (Week 6, mPPS2) was 125.24(13.01) mmHg. The “Systolic blood pressure, Median” value (Week 6, mPPS2) was 126.00 mmHg, the Adiponectin change from baseline, ANCOVA LS mean (SE) (Week 12, PPS) was 1.02 µg/mL and the Adiponectin change from baseline, Mean (SD) (Week 12, PPS) was 1.08 µg/mL. The “Adiponectin change from baseline, Median” value (Week 12, PPS) was 0.83 ng/mL, the Adiponectin, Mean (SD) (Week 12, PPS) was 7.76 µg/mL and the Adiponectin, Median (Week 12, PPS) was 6.53 µg/mL. The “HOMA-IR change from baseline, ANCOVA LS mean (SE)” value (Week 12, PPS) was −1.60, the “HOMA-IR change from baseline, Mean (SD)” value (Week 12, PPS) was −1.74 and the “HOMA-IR change from baseline, Median” value (Week 12, PPS) was −1.27. The “HOMA-IR, Mean (SD)” value (Week 12, PPS) was 2.17, the “HOMA-IR, Median” value (Week 12, PPS) was 1.89 and the “HOMA-β change from baseline, ANCOVA LS mean (SE)” value (Week 12, PPS) was 8.75. For the same compound, the “HOMA-β change from baseline, Mean (SD)” value (Week 12, PPS) was 8.97, the “HOMA-β change from baseline, Median” value (Week 12, PPS) was 4.55 and the “HOMA-β, Mean (SD)” value (Week 12, PPS) was 53.77. For the same compound, the “HOMA-β, Median” value (Week 12, PPS) was 45.50.
